Data from PMC9492542, “Brain-restricted mTOR inhibition with binary pharmacology” (Nature, 2022).
Values joined by “and” are separate entries in the source; they are usually repeats but may differ in a detail not shown here. Equal values may be shown once. Read-outs that look alike come from different tables or passages of the source.

How the values were obtained:
FKBP12 = biological target: T1, FKBP12 (Homo sapiens, UniProt P62942); experiment: Competition fluorescence polarization assay with FITC-rapamycin tracer; type: binding
T1 construct: His-tag (HRV 3C cleavable) (cleaved yes); made in house; host or cells: Escherichia coli BL21(DE3)
Experimental: Compound binding affinity was determined using a competition fluorescence polarization assay. […] The assay buffer was 20 mM HEPES pH 7.5 and 0.01% Triton X-100. […] Data were fitted to a three-parameter sigmoidal curve to derive IC50 values. Ki of the compounds were calculated using a tool provided by S. Wang’s laboratory (http://www.umich.edu/~shaomengwanglab/software/calc_ki/index.html). Data were plotted in GraphPad Prism 9.0.

NFAT = NFAT activation assay (Jurkat-Lucia NFAT luciferase reporter, PMA/ionomycin); type: cell-based
Experimental: Jurkat-Lucia NFAT cells were resuspended to 2 × 10^6 cells per ml in fresh growth medium and dispensed in 96-well tissue culture plates (Corning 3904; 180 µl per well). DMSO solutions of test compounds at 100× the test concentrations were added and the cells were incubated for 4 h at 37 °C. A 10× stimulation solution containing phorbol myristate acetate (100 ng ml^–1) and ionomycin (10 µg ml^–1) were added to each well (20 µl per well) except for the negative control wells, which were supplemented with 20 µl medium. Cells were incubated at 37 °C for 12 h. Cells (20 µl per well) were transferred into a white opaque 96-well plate (Corning 3912). TECAN Spark 20M plate reader equipped with an auto-injection system was primed with Lucia luciferase substrate solution and set with the following parameters: 50 µl of injection volume, end-point measurement with a 4-s delay time and 0.1-s integration time. Luciferase activity was measured with the settings above and normalized to DMSO-treated, stimulated cells. Data were plotted in GraphPad Prism 9.0.

human PBMCs = experiment: Proliferation of anti-CD3/anti-CD28 stimulated PBMCs (120 h); type: cell-based
mTOR [1] = experiment: mTOR signalling in mouse whole brain and skeletal muscle after single i.p. dose (immunoblot, insulin stimulated); type: in vivo; conditions: for p-4EBP1 Brain, fold relative to no insulin, normalized to GAPDH / p-4EBP1 Muscle, fold relative to no insulin, normalized to GAPDH / p-RPS6 Brain, fold relative to no insulin, normalized to GAPDH / p-RPS6 Muscle, fold relative to no insulin, normalized to GAPDH: RL1 1 mg/kg, RB 40 mg/kg, insulin 250 mU, listed as RB
Experimental: Whole brain and skeletal muscle were analyzed by immunoblot.

U87MG = experiment: Orthotopic intracranial U87MG-luciferase glioblastoma xenograft
GBM43 = experiment: Orthotopic intracranial GBM43-luciferase patient-derived glioblastoma xenograft; conditions: GBM43-Luc
mTOR [2] = experiment: Immunoblot analysis of mTOR signalling (p-S6, p-4EBP1) in MCF7 cells, incl. screen for blocking of rapamycin/RapaLink-1
[3] = U87MG-Luc, day 0, individual mice
[4] = U87MG-Luc, day 5, individual mice
[5] = U87MG-Luc, day 10, individual mice
[6] = U87MG-Luc, day 15, individual mice
[7] = U87MG-Luc, day 20, individual mice

T1 sequence (P62942 whole entry): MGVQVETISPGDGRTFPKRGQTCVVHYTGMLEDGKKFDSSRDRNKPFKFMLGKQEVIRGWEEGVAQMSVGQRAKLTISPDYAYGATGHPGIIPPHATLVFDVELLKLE

CO[C@H]1C[C@@H](C)C/C(C)=C/[C@@H](CCCc2cccc[n+]2[O-])C(=O)C[C@H](O)[C@@H](C)[C@@H](/C(C)=C/[C@@H]2CC[C@@H](O)[C@H](OC)C2)OC(=O)[C@@H]2CCCCN2C(=O)C(=O)[C@]2(O)O[C@H]1[C@@H](OC)C[C@H]2C [RapaBlock]
fluorescence polarization (competition, raw) (FKBP12; 0.0976562 nM compound): 114 and 112
fluorescence polarization (competition, raw) (FKBP12; 0.195312 nM compound): 114 and 112
fluorescence polarization (competition, raw) (FKBP12; 0.390625 nM compound): 112 and 110
fluorescence polarization (competition, raw) (FKBP12; 0.78125 nM compound): 110 and 109
fluorescence polarization (competition, raw) (FKBP12; 1.5625 nM compound): 109
fluorescence polarization (competition, raw) (FKBP12; 3.125 nM compound): 100 and 104
fluorescence polarization (competition, raw) (FKBP12; 6.25 nM compound): 86 and 88
fluorescence polarization (competition, raw) (FKBP12; 12.5 nM compound): 74
fluorescence polarization (competition, raw) (FKBP12; 25 nM compound): 64 and 62
fluorescence polarization (competition, raw) (FKBP12; 50 nM compound): 56 and 58
fluorescence polarization (competition, raw) (FKBP12; 100 nM compound): 46 and 55
Ki (FKBP12; Extended Data Fig. 4b, n = 3, read-out: Ki(FKBP12)): 1.4 nM
Ki (FKBP12; Fig. 2d, fluorescein-labelled rapamycin tracer, read-out: FKBP12 Ki): 3.1 nM
Kd (FKBP12; measured in-house in a single fluorescence polarization experiment, read-out: Kd3 (RapaBlock binding to FKBP)): 2.5 nM
Kd (FKBP12; recombinant FKBP12, Extended Data Fig. 2, read-out: Kd (FKBP12)): 1.6 nM
NFAT luciferase activity, normalized to DMSO-treated stimulated cells (NFAT; 0.00512 nM): 93 and 91.3 and 97
NFAT luciferase activity, normalized to DMSO-treated stimulated cells (NFAT; 0.0256 nM): 97.8 and 104.3 and 98.9
NFAT luciferase activity, normalized to DMSO-treated stimulated cells (NFAT; 0.128 nM): 95.3 and 89 and 97
NFAT luciferase activity, normalized to DMSO-treated stimulated cells (NFAT; 0.64 nM): 97.6 and 92.3 and 99.2
NFAT luciferase activity, normalized to DMSO-treated stimulated cells (NFAT; 16 nM): 100.2 and 101.6 and 105.7
NFAT luciferase activity, normalized to DMSO-treated stimulated cells (NFAT; 80 nM): 104.1 and 109.3 and 105.3
NFAT luciferase activity, normalized to DMSO-treated stimulated cells (NFAT; 400 nM): 109.4 and 107.4 and 106.7
NFAT luciferase activity, normalized to DMSO-treated stimulated cells (NFAT; 2000 nM): 112.3 and 110 and 113.9
NFAT luciferase activity, normalized to DMSO-treated stimulated cells (NFAT; 10000 nM): 112 and 113.2 and 110.3
inhibitory activity for calcineurin (NFAT; Fig. 2e): does not exhibit any inhibitory activity for calcineurin
IC50 (NFAT; Homo sapiens, Jurkat NFAT luciferase, PMA + ionomycin): > 10000 nM
shift of RapaLink-1 IC50 for PBMC proliferation by addition of RapaBlock (human PBMCs; 5 days): more than 100 fold
protection of PBMCs from rapamycin-mediated growth inhibition (human PBMCs; compared with protection from RapaLink-1): appeared more effective at protecting PBMCs from rapamycin-mediated growth inhibition
relative proliferation compared to DMSO-treated cells (human PBMCs; constant 10 µM RapaBlock, low RapaLink-1/rapamycin concentrations): ~ 100%
p-4EBP1 Brain, fold relative to no insulin, normalized to GAPDH (mTOR [1]; 4h): 1.83 and 2 and 1.39
p-4EBP1 Muscle, fold relative to no insulin, normalized to GAPDH (mTOR [1]; 4h): 1.7 and 2.09 and 1.93
p-RPS6 Brain, fold relative to no insulin, normalized to GAPDH (mTOR [1]; 4h): 1.92 and 2.13 and 3
p-RPS6 Muscle, fold relative to no insulin, normalized to GAPDH (mTOR [1]; 4h): 2.39 and 2.47 and 2.32
p-4EBP1 Brain, fold relative to no insulin, normalized to GAPDH (mTOR [1]; 24h): 1.46 and 1.83 and 1.26
p-4EBP1 Muscle, fold relative to no insulin, normalized to GAPDH (mTOR [1]; 24h): 2.04 and 2.08 and 2.19
p-RPS6 Brain, fold relative to no insulin, normalized to GAPDH (mTOR [1]; 24h): 1.78 and 1.76 and 3.3
p-RPS6 Muscle, fold relative to no insulin, normalized to GAPDH (mTOR [1]; 24h): 3.51 and 2.13 and 2.07
tissue-specific protection from RapaLink-1 (in vivo screen) (mTOR [1]; RapaLink-1 1 mg per kg + candidate 40 mg per kg): protected peripheral tissues from RapaLink-1 but allowed potent inhibition of mTOR in the brain
tumour growth and survival (U87MG; RapaLink-1 1 mg per kg, RapaBlock 40 mg per kg, i.p. every 5 days): no significant effect on either
Mouse weight (U87MG; [3]): 23.7 g and 18.4 g and 20.5 g and 22.9 g and 23.2 g and 19.4 g
Tumor size (measured by bioluminescence) (U87MG; [3]): 17700000 and 2260000 and 10400000 and 10700000 and 2010000 and 11600000
Mouse weight (U87MG; [4]): 25.1 g and 20.4 g and 22.3 g and 25.2 g and 24.1 g and 21.1 g
Tumor size (measured by bioluminescence) (U87MG; [4]): 43100000 and 13000000 and 366000 and 28000000 and 11500000 and 3180000
Mouse weight (U87MG; [5]): 24.6 g and 21.1 g and 22.5 g and 25.3 g and 23.8 g and 21.3 g
Tumor size (measured by bioluminescence) (U87MG; [5]): 1970000 and 19800000 and 27300000 and 73500000 and 25400000 and 8750000
Mouse weight (U87MG; [6]): 24.4 g and 21.8 g and 23 g (2×) and 25 g and 21.9 g
Tumor size (measured by bioluminescence) (U87MG; [6]): 1140000000 and 112000000 and 171000000 and 820000000 and 161000000 and 1140000
Mouse weight (U87MG; [7]): 19.5 g and 24.1 g and 23.9 g and 23.1 g
Tumor size (measured by bioluminescence) (U87MG; [7]): 6750000000 and 1500000000 and 1360000000 and 47000000 and 739000000
Mouse survival (U87MG; U87MG-Luc, individual mice): 25 days and 21 days and 28 days and 23 days
Mouse weight (GBM43; day 0, individual mice): 22.5 g and 18.4 g and 23.4 g and 24.1 g and 22.4 g and 24.3 g
Tumor size (measured by bioluminescence) (GBM43; day 0, individual mice): 545000 and 240000 and 88600 and 6780000 and 3240000 and 1560000
Mouse weight (GBM43; day 4, individual mice): 22.5 g and 20 g and 24 g and 25.1 g and 23.3 g and 25 g
Tumor size (measured by bioluminescence) (GBM43; day 4, individual mice): 550000 and 781000 and 188000 and 20000000 and 920000 and 2990000
Mouse weight (GBM43; day 7, individual mice): 22 g and 20 g and 25 g (2×) and 23.4 g and 25.8 g
Tumor size (measured by bioluminescence) (GBM43; day 7, individual mice): 42300000 and 19300000 and 2230000 and 1130000000 and 47100000 and 178000000
Mouse weight (GBM43; day 10, individual mice): 21.7 g and 19.6 g and 24.5 g and 24.8 g (2×) and 22.7 g
Tumor size (measured by bioluminescence) (GBM43; day 10, individual mice): 782000000 and 3210000 and 104000000 and 3810000000 and 1590000000 and 1220000000
Mouse survival (GBM43; individual mice): 16 days and 17 days and 18 days
blocking of rapamycin (phospho-S6 signal) (mTOR [2]; MCF7, 100:1 stoichiometry RapaBlock:rapamycin): restoring the phospho-S6 signal to the same level as untreated cells
attenuation of RapaLink-1 effects on mTOR signalling (mTOR [2]; MCF7, 4 h, with 10 nM RapaLink-1): attenuates the pharmacological effects of RapaLink-1 in a dose-dependent manner
effect on mTOR signalling by itself (mTOR [2]; cultured cells, up to 10 µM): does not affect mTOR signalling by itself
